Test results published in patent publication US9427426B2 (priority 2008, dated 2016).
Where “and” joins values, the source holds several entries; their conditions need not be identical. Equal values may be shown once.

What was measured:
[1] = system: rats intoxicated with lead (lead acetate); experiment: Example 1: erdosteine per os vs NAC per os in rats intoxicated with lead; type: in vivo, Wistar rats; settings: erdosteine 875 mg/kg or NAC 500 mg/kg per os once a day for 7 days
Description: (§1) 3. […] NAC has been mixed with bidistilled water, the resulting solution being administered in volume of 10 ml/kg.
(§2) 4. […] Erdosteine has been mixed with bidistilled water and sodium hydrogen carbonate equimolar, the resulting solution being administered in volume of 10 ml/kg.
(§3) Mortality has been recorded. […] Few animals have been collected urine eliminated spontaneously for Pb—Hg analysis. Animals have been sacrificed under general anesthesia with ether. 6 animals of each group (3 males and 3 females) have been randomly selected for macroscopic and microscopic anatomic-pathological examination.

[2] = system: rats intoxicated with lead (lead acetate); experiment: Example 2: erdosteine i.v. vs NAC i.v. in rats intoxicated with lead; type: in vivo, Wistar rats; settings: for Mortalitaty total / Mortality in percent: Pb intoxicated (lead acetate 4665 mg/kg per os), 35 animals/lot; for Anatomical pathology: lesions / Pb in urine, Pb mean values / Creatinine mean values / Haematocrit mean values / Haemoglobin mean values / Leucocytes mean values / Urea mean values / Uric acid mean value / erythrocytes mean values: Pb intoxicated; for Creatinine mean values / Haematocrit mean values / Haemoglobin mean values / Leucocytes mean values / Urea mean values / Uric acid mean value / erythrocytes mean values: survivors after 7 days
Description: (§4) The animals have been randomly divided in 11 lots.
(§5) 3. […] NAC has been dissolved in bidistilled water.
(§6) 4. […] Erdosteine has been solubilized in bidistilled water and sodium hydrogen carbonate equimolar, the resulting solution being administered in volume of 10 ml/kg. Preliminarily we tested the different molar ratios erdosteine/sodium hydrogen carbonate in a range between 0.5:1 and 1.5:1 and the volume to be solubilized. […] Animals Monitoring:
as §3

[3] = system: rats intoxicated with mercury (mercury chloride); experiment: Example 2: erdosteine i.v. vs NAC i.v. in rats intoxicated with mercury; type: in vivo, Wistar rats; settings: for Mortalitaty total / Mortality in percent: Hg intoxicated (mercury chloride 42 mg/kg per os), 35 animals/lot; for Anatomical pathology: lesions / Hg in urine mean values / Creatinine mean values / Haematocrit mean values / Haemoglobin mean values / Leucocytes mean values / Urea mean values / Uric acid mean value / erythrocytes mean values: Hg intoxicated; for Creatinine mean values / Haematocrit mean values / Haemoglobin mean values / Leucocytes mean values / Urea mean values / Uric acid mean value / erythrocytes mean values: survivors after 7 days
Description: as §4, §5, §6, §3

[4] = system: rat intoxicated with lead (lead acetate); experiment: Example 3: erdosteine i.v. vs BAL+EDTA (TT) and association in rats intoxicated with lead; settings: erdosteine 350 mg/kg i.v.
Description: The animals have been randomly divided in 6 lots.
2. […] Dosage administered is similar to the maximum possible dosage in man.
4. Erdosteine has been administered first, immediately after intoxication, followed rapidly by BAL and then EDTA by more operators in sequence, in order to simulate the situation in man when it is possible to administer i.v. in perfusion and at the same time i.m.
Mortality has been recorded. […] After 7 days urine have been taken through trans-vesica punction.
Analysis of mortality have been made using Chi square test.
Results with p<0.05 have been considered statistically significant.
Biochemical tests have been made with Refloton 2000, hematological tests with Hemastar 4, urine summary with Urilux, Pb in urine with GC-MS Varian

[5] = system: rats intoxicated with paracetamol; experiment: Example 4: erdosteine i.v. vs NAC i.v. in rats intoxicated with paracetamol; type: in vivo, Wistar rats
Text: Experiment has been carried on in parallel with experiment of example 3 and results of animals not intoxicated not treated (lot1) have been used as reference.
as §5
Animals have been monitored as described in example 3.
Mortality has been recorded.

[6] = system: rats intoxicated with mercury (mercury chloride); experiment: Example 1: erdosteine per os vs NAC per os in rats intoxicated with mercury; type: in vivo, Wistar rats; settings: erdosteine 875 mg/kg or NAC 500 mg/kg per os once a day for 7 days
Description: as §1, §2, §3

[7] = Pb intoxicated (lead acetate 4665 mg/kg per os), 30 animals/lot
[8] = survivors after 7 days, Pb intoxicated
[9] = ERDO1 = erdosteine 350 mg/kg i.v. or NAC 114 mg/kg i.v. once a day for 7 days
[10] = ERDO2 = erdosteine 175 mg/kg i.v. once a day for 7 days
[11] = ERDO1 = erdosteine 350 mg/kg i.v. or NAC 114 mg/kg i.v. once a day
[12] = ERDO2 = erdosteine 175 mg/kg i.v. once a day
[13] = Pb intoxicated (lead acetate 4665 mg/kg per os), BAL 25.2 mg/kg + EDTA 30 mg/kg i.m. (TT) or both, once a day for 7 days, 30 animals/lot
[14] = survivors after 7 days, Pb intoxicated, TT (BAL+EDTA i.m.) or both
[15] = survivors after 7 days, Pb intoxicated, TT (BAL+EDTA i.m.) or both, listed as Erdosteine
[16] = urine at the end of period (7 days), Pb intoxicated, TT or both
[17] = paracetamol […] per os, erdosteine 350 mg/kg i.v. or NAC 114 mg/kg i.v. once a day for 7 days, 30 animals/lot
[18] = paracetamol intoxicated, erdosteine 350 mg/kg i.v. or NAC 114 mg/kg i.v., 7 days
[19] = survivors at 7 days, paracetamol intoxicated, erdosteine 350 mg/kg i.v. or NAC 114 mg/kg i.v.
[20] = Hg intoxicated (mercury chloride 42 mg/kg per os), 30 animals/lot
[21] = survivors after 7 days, Hg intoxicated

O=C(O)CSCC(=O)NC1CCSC1=O (centres unmarked) [erdosteine, Erdosteine]
Mortality in percent [1, 7]: 16.6% | Mortality total [1, 7]: 5 | Anatomical pathology: lesions (macroscopic and microscopic examination) ([1]; Pb intoxicated): less important damages | Pb in urine, Pb mean values ([1]; Pb intoxicated, GS MS Varian 4100): 10.9 mg/L | Creatinine mean values [1, 8]: 0.48 ^1, 2 mK/dl | Haematocrit mean values [1, 8]: 39.41^3 | Haemoglobin mean values [1, 8]: 13.75^3 g/dl | Leucocytes mean values [1, 8]: 7.31^3 | Urea mean values [1, 8]: 50.93 ^1, 2 mg/dl | Uric acid mean value [1, 8]: 1.90 ^3 mg/dl | erythrocytes mean values [1, 8]: 6.82^3 *10^6/mm^3 | Mortalitaty total [2, 9]: 5 ^1, 2 | Mortality in percent [2, 9]: 14.3% | Mortalitaty total [2, 10]: 10 ^1, 2 | Mortality in percent [2, 10]: 28.6% | Anatomical pathology: lesions [2, 9]: less important damages | Pb in urine, Pb mean values [2, 9]: 15.9 mg/L | Anatomical pathology: lesions [2, 10]: did not improve lesions | Pb in urine, Pb mean values [2, 10]: 13 mg/L | Creatinine mean values [2, 11]: 0.49 ^1, 2 mK/dl | Haematocrit mean values [2, 11]: 37.21 ^3 | Haemoglobin mean values [2, 11]: 15.71 ^3 g/dl | Leucocytes mean values [2, 11]: 11.36 ^3 | Urea mean values [2, 11]: 48.95 ^1, 2, 3 mg/dl | Uric acid mean value [2, 11]: 2.28 ^4 mg/dl | erythrocytes mean values [2, 11]: 7.01 ^3 *10^6/mm^3 | Creatinine mean values [2, 12]: 0.46 ^1, 2 mK/dl | Haematocrit mean values [2, 12]: 37.7 ^3 | Haemoglobin mean values [2, 12]: 15.95 ^3 g/dl | Leucocytes mean values [2, 12]: 14.35 ^3 | Urea mean values [2, 12]: 54.4 ^1, 2 mg/dl | Uric acid mean value [2, 12]: 1.76 ^1, 2 mg/dl | erythrocytes mean values [2, 12]: 7.07 ^3 *10^6/mm^3 | Mortalitaty total [3, 9]: 8 ^1, 2 | Mortality in percent [3, 9]: 22.6% | Mortality in percent ([3]; ERDO1 = erdosteine 350 mg/kg i.v. or NAC 114 mg/kg i.v. once a day for 7 days, listed as ERDOI): 22.6% | Mortalitaty total [3, 10]: 12 ^1, 2 | Mortality in percent [3, 10]: 34.3% | Anatomical pathology: lesions [3, 9]: least severe damages | Hg in urine mean values [3, 9]: 18.7 mg/L | Anatomical pathology: lesions [3, 10]: less important lesions | Hg in urine mean values [3, 10]: 14.4 mg/L | Creatinine mean values [3, 11]: 0.60 ^2 mK/dl | Haematocrit mean values [3, 11]: 38.43 ^3 | Haemoglobin mean values [3, 11]: 15.05 ^3 g/dl | Leucocytes mean values [3, 11]: 17.36 ^3 | Urea mean values [3, 11]: 50.36 ^1, 2 mg/dl | Uric acid mean value [3, 11]: 2.25 ^4 mg/dl | erythrocytes mean values [3, 11]: 6.98 ^3 *10^6/mm^3 | Creatinine mean values [3, 12]: 0.51 ^1, 2 mK/dl | Haematocrit mean values [3, 12]: 36.83 ^3 | Haemoglobin mean values [3, 12]: 13.86 ^J g/dl | Leucocytes mean values [3, 12]: 8.61 ^3 | Urea mean values [3, 12]: 53.15 ^1, 2 mg/dl | Uric acid mean value [3, 12]: 2.23 ^4 mg/dl | erythrocytes mean values [3, 12]: 6.55 ^3 *10^6/mm^3 | Mortality % [4, 13]: 37% | Total mortality [4, 13]: 11/30 and 11/30 ^1 | Renal aggression (urine summary), in words ([4]; Pb intoxicated, TT or both): improvement compared with TT | Pb in urine of survivors at the end of period, mean values ([4]; Pb intoxicated, TT or both, once a day for 7 days): 164.6 mg/L | ALT [4, 14]: 159^2 | AST [4, 14]: 57.2^3 | Hb [4, 14]: 16.98 | Hct [4, 14]: 42.9 | MCH [4, 14]: 23.46 | PLT [4, 14]: 574 | RBC [4, 14]: 7.156 | Urea [4, 14]: 69.4^3 | Uric acid [4, 14]: 2.632 | WBC [4, 14]: 6.16 | ALT [4, 15]: 159^2,3 | AST [4, 15]: 57.2 | Hb [4, 15]: 16.98^3 | PLT [4, 15]: 574^3 | RBC [4, 15]: 7.156^1,3 | Urea [4, 15]: 68.4 | WBC [4, 15]: 6.16^3 | Urine summary: Bil. [4, 16]: 3 mg/dL | Urine summary: Chet [4, 16]: 10 mg/dL | Urine summary: Density [4, 16]: 1020 | Urine summary: Erythrocyte [4, 16]: 100 µL⁻¹ | Urine summary: Glucose [4, 16]: 50 mg/dL | Urine summary: Leuc [4, 16]: 28 µL⁻¹ | Urine summary: Prot. [4, 16]: 90 mg/dL | Urine summary: UBG [4, 16]: 1 mg/dL | Urine summary: pH [4, 16]: 6.5 | Mortality percentual [5, 17]: 27% | Total mortality [5, 17]: 8/30 | Renal aggression (urine summary), in words ([5]; paracetamol intoxicated, erdosteine 350 mg/kg i.v. or NAC 114 mg/kg i.v.): antagonized | Urine summary: Bil. [5, 18]: 1 mg/dL | Urine summary: Chet [5, 18]: neg | Urine summary: Density [5, 18]: 1020 | Urine summary: Erythrocyte [5, 18]: 25 µL⁻¹ | Urine summary: Glucose [5, 18]: neg | Urine summary: Leuc [5, 18]: 10 µL⁻¹ | Urine summary: Prot. [5, 18]: 50 mg/dL | Urine summary: UBG [5, 18]: 1 mg/dL | Urine summary: pH [5, 18]: 7 | ALT [5, 19]: 165.4^2,3 | AST [5, 19]: 45.2^2 | HCT [5, 19]: 42.9^1 | PLT [5, 19]: 749.8^2,3 | RBC [5, 19]: 7.45^1 | Urea [5, 19]: 55.2^2,3 | Uric acid [5, 19]: 1.934^2,3 | Mortality in percent [6, 20]: 16.6% | Mortality total [6, 20]: 5^1 | Anatomical pathology: lesions (macroscopic and microscopic examination) ([6]; Hg intoxicated): less important lesions | Hg in urine mean values ([6]; Hg intoxicated, GS MS Varian 4100): 14.7 mg/L | Creatinine mean values [6, 21]: 0.47 ^1, 2 mK/dl | Haematocrit mean values [6, 21]: 38.58^3 | Haemoglobin mean values [6, 21]: 13.75^3 g/dl | Leucocytes mean values [6, 21]: 7.81^3 | Urea mean values [6, 21]: 49.18 ^1, 2 mg/dl | Uric acid mean value [6, 21]: 2.40 ^1 mg/dl | erythrocytes mean values [6, 21]: 6.81^3 *10^6/mm^3
